Test results from patent US20070187646A1, “Surface-active amines and methods of using same to impede corrosion” (priority 2006, published 2007).
Several values for one entry are separate records, joined by “and”; a condition that tells them apart may be missing. Equal entries are not always repeated. Entries after “also recorded” stand apart in the source; their conditions may differ. Where two headings read alike, the source gives them in different places.

Experiments:
[1] = Quartz crystal microbalance weight loss of amine-treated iron surface in unstirred 0.5 M sodium sulfate solution; conditions: for percent wt. loss: amine-treated iron surface, 6.5 hours in unstirred 0.5 M Na2SO4 (pH=5.8); for time when wt. loss commenced: unstirred 0.5 M Na2SO4 (pH=5.8), 6.5 hours
Experimental: Weightloss measurements were performed by immersing the amine-coated iron surface in 0.5 M sodium sulfate solution (pH=5.8), and comparing the results observed with those obtained in case of an unprotected iron surface. From the results achieved, the following four major conclusions follow:
Table I below correlates the pKa of an amine with the percentage weight loss observed (using the quartz crystal microbalance technique) when the amine-treated iron surface was immersed for 6.5 hours in 0.5 M Na2SO4 solution (pH=5.8). See pKa prediction of organic acids and bases, D. D. Perrin, B. Dempsey, E. P. Serjeant (1981), Chapman and Hall. Physical methods in Heterocyclic Chemistry Vol. 1, A. A. Katritzky (1963), Academic Press.

[2] = QCM weight loss of amine-treated iron deposit in "open" pH 2.6 sulfate solution
[3] = Quartz crystal microbalance weight loss of amine-treated iron surface in unstirred 0.5 M sodium sulfate solution; conditions: "open" pH 5.9 sulfate solution
[4] = EQCM amine adsorption on iron in passivating borate buffer (pH 8.4); conditions: 15 mM amine
From the text: (§1) All the test solutions were buffered so that the effect of pH variation can be eliminated as much as possible. Thus, amine inhibition effectiveness is directly related to the strength of adsorption of the amine and its molecular structure, independent of pH effects. Here, borate buffer (pH 8.4) was used as passivating environment, whereas phosphate buffer (pH 5.7) was used as corrosive environment.
(§2) Plating of iron deposit (1 u thick) onto the polished gold crystal of the QCM electrode was accomplished from a 200 ml aqueous solution with the following composition:
(§3) For adsorption studies, the deposit was immersed in a passivating buffered solution (borate, pH 8.4, prepared as cited above) for 40 rain. for equilibration, after which 15 mM amine was added to the solution. The variation in frequency upon addition of the amine is quantitatively proportional to the amine adsorbed on the surface of the metal (Sauerbrey equation).
(§4) Deaerated test solutions (no dissolved O2) are prepared by purging the test solutions with argon for 2 hours before the tests and also during the tests.

[5] = EQCM amine inhibition of iron corrosion in corrosive phosphate buffer (pH 5.7); conditions: 15 mM amine
From the text: as §1, §2
(§5) For the corrosion inhibition studies, the deposit was immersed in a corrosive buffer solution (phosphate, pH 5.7) for 40 min. for equilibration, and then 15 mM amine was added to the solution.
as §4

[6] = EQCM aniline adsorption on nickel in borate buffer (pH 8.4); conditions: borate buffer pH 8.4, aerated
Experimental: (§6) Plating of black nickel deposit (1 u thick) onto the polished gold crystal of the QCM electrode was accomplished from a 200 ml aqueous solution with the following composition:
as §3

[7] = EQCM aniline inhibition of nickel corrosion in phosphate buffer (pH 5.7); conditions: phosphate buffer pH 5.7, aerated
Experimental: as §6, §5

[8] = Weight loss of AISI 1018 steel coupons exposed to amine containing steam at 250° F.; conditions: 250° F. steam, compared to plain steam
[9] = FTIR phase identification of iron oxides on steel samples exposed to amine containing steam; conditions: for hematite in samples exposed for four hours (FTIR): four hours exposure; for exposure time at which hematite formation was observed (FTIR): steam with 3 ppm DBU or 5 ppm morpholine
From the text: The main purpose of this analysis was to observe the relative delay in magnetite transformation to hematite.
Amorphous crystals will produce a variation in peak width, and a slight shift on IR values (Cornell R., and Schwertmann U., 1996). […] Oxyhydroxides absorption hands are as follows: α-FeOOH is known to have a deep well defined pair of sharp peaks at 890 and 795 cm^−1, γ-FeOOH presents an enunciated and deep peak at 1018 cm^−1. β-FeOOH was not expected to be present in the experiment conditions.
FIGS. 42 and 43 show the FTIR spectra of iron oxides formed on steel samples exposed to steam containing 3 ppm of DBU.
FIGS. 46 and 47 show the FTIR spectra of iron oxides formed on steel samples exposed to steam containing 3 ppm of DMA.

[10] = cited from earlier work
[11] = QCM weight loss of DBU-treated iron deposit in Ar-purged pH 2.6 sulfate solution; conditions: no dissolved oxygen, pH 2.6 sodium sulfate solution
Experimental: This conclusion was arrived at by examining the effect of DBU on the corrosion of iron in Ar-purged (no dissolved oxygen) pH 2.6 (acidic) sodium sulfate solution using the QCM technique, and comparing the results obtained with those recorded in “open” (oxygen containing) pH 2.6 and 5.9 solutions.
The apparatus for the experiments performed under purged conditions (as illustrated in FIG. 6) consists of a 500 ml Pyrex reaction vessel with a 4-necked cover. The reaction vessel and the cover are retained intact together during the experiment with the aid of a horse-shoe clamp. The QCM is inserted through the central neck, after plating the iron deposit onto the crystal. A pH electrode is inserted through one of the necks, and an inlet for Ar gas through the other. The fourth neck is stoppered when not used. The pH 2.6 sulfate solution is purged with Ar gas for 1 hour before exposure of the iron deposit (protected/unprotected) to the environment. See D. D. Perrin, B. Dempsey, E. P. Serjeant, pKa prediction of organic acids and bases, Chapman and Hall, 1981. A. A. Katritzky, Physical methods in Heterocyclic Chemistry Vol. 1, Academic Press, 1963. […]
The DBU-treated iron deposit was immersed in the Ar-purged pH 2.6 solution, and the weightloss and corresponding pH measurements recorded are plotted in FIGS. 7A and 7B. […]

[12] = borate buffer pH 8.4, deaerated
[13] = phosphate buffer pH 5.7, aerated
[14] = phosphate buffer pH 5.7, deaerated

Question: With `CC(C)NC(C)C` [diisopropylamine] as the compound, how does the percent wt. loss ([1]; listed as diisoproplyamine) read?
Answer: 0%

Question: And the “time when wt. loss commenced” value [1]?
Answer: no wt. loss

Question: And the “effectiveness as corrosion inhibitor in acidic solution” value (“effectiveness as corrosion inhibitor” for short) ([2]; "open" pH 2.6 solution)?
Answer: not effective inhibitors

Question: And the “% wt. loss in pH 2.6 solution” value ([2]; "open" pH 2.6 sulfate solution)?
Answer: 99.23%

Question: And the “% wt. loss in pH 5.9 solution” value [3]?
Answer: 0%

Question: Which results are given for `Nc1ccccc1` [aniline]?
Answer: adsorption on iron surface ([4]; borate buffer pH 8.4, aerated): does not have any adsorption; adsorption on iron surface ([4]; borate buffer pH 8.4, aerated, listed as Aniline): no; adsorption on iron surface [4, 12]: no; inhibition of iron corrosion [5, 13]: no effect on inhibition; adsorption on nickel surface [6]: adsorption; inhibition of nickel corrosion [7]: inhibition

Question: For `C1COCCN1` [morpholine], which percent wt. loss [1] is on record?
Answer: 8.87%

Question: And the “time when wt. loss commenced” value [1]?
Answer: 110 min

Question: And the “adsorption on iron surface” value ([4]; borate buffer pH 8.4, aerated)?
Answer: only weak adsorption; also recorded: little

Question: And the “adsorption on iron surface” value [4, 12]?
Answer: still can adsorb on the iron surface; also recorded: little

Question: What about the “inhibition of iron corrosion” value [5, 13] of the same compound?
Answer: slow and weak

Question: What about the “inhibition of iron corrosion” value [5, 14] of the same compound?
Answer: none of them can stop the iron corrosion

Question: And the “weight loss / corrosion rate of steel coupons in steam” value (shortened to “weight loss / corrosion rate”) [8]?
Answer: oxidation rates less favorable

Question: What about the “hematite in samples exposed for four hours (FTIR)” value (from here on “hematite in samples exposed”) [9] of the same compound?
Answer: some hematite presence

Question: And the “exposure time at which hematite formation was observed (FTIR)” value [9]?
Answer: started after two hours of exposure

Question: And the “% wt. loss in pH 5.9 solution” value [3]?
Answer: 8.87%

Question: Which results are given for `C1CCNCC1` [piperidine]?
Answer: percent wt. loss [1]: 0.57%; time when wt. loss commenced [1]: 350 min; effectiveness as corrosion inhibitor in acidic solution ([2]; "open" pH 2.6 solution): good corrosion inhibitors; % wt. loss in pH 2.6 solution ([2]; "open" pH 2.6 sulfate solution): 10.9%; % wt. loss in pH 5.9 solution [3]: 0.57%

Question: With `CNC` [dimethylamine] as the compound, how does the percent wt. loss [1] read?
Answer: 0.793%

Question: And the “time when wt. loss commenced” value [1]?
Answer: 30 min

Question: What about the “effectiveness as corrosion inhibitor” value ([2]; "open" pH 2.6 solution) of the same compound?
Answer: not effective inhibitors

Question: What about the “% wt. loss in pH 2.6 solution” value ([2]; "open" pH 2.6 sulfate solution) of the same compound?
Answer: 98.4%

Question: And the “weight loss / corrosion rate” value [8]?
Answer: oxidation rates less favorable

Question: What about the “hematite in samples exposed” value [9] of the same compound?
Answer: no hematite was detected

Question: And the “% wt. loss in pH 5.9 solution” value [3]?
Answer: 0.793%

Question: Which percent wt. loss [1] does the source give for `CCCCNCCCC` [N,N-dibutylamine] here?
Answer: 9.3%

Question: And the “time when wt. loss commenced” value [1]?
Answer: 161 minutes, expt.

Question: And the “adsorption on iron surface” value ([4]; borate buffer pH 8.4, aerated, listed as DBA)?
Answer: adsorbs on iron surface; also recorded: adsorption

Question: What about the “adsorption on iron surface” value ([4]; borate buffer pH 8.4, deaerated, listed as DBA) of the same compound?
Answer: still can adsorb on the iron surface; also recorded: adsorption

Question: What about the “inhibition of iron corrosion” value ([5]; phosphate buffer pH 5.7, aerated, listed as DBA) of the same compound?
Answer: oxide growth is noted after its adsorption; also recorded: inhibition

Question: What about the “inhibition of iron corrosion” value ([5]; phosphate buffer pH 5.7, deaerated, listed as DBA) of the same compound?
Answer: none of them can stop the iron corrosion; also recorded: no effect

Question: And the “% wt. loss in pH 5.9 solution” value [3]?
Answer: 9.3%

Question: And the “pKa at 25° C.” value ([10]; Table I and text)?
Answer: 11.25

Question: What about the “pKa at 25° C.” value ([10]; Table II) of the same compound?
Answer: 11.25

Question: Which percent wt. loss [1] does the source give for `C1CCC2=NCCCN2CC1` [DBU, 1,8-diazabicyclo[5.4.0]undec-7-ene] here?
Answer: 0%

Question: What about the “time when wt. loss commenced” value [1] of the same compound?
Answer: no wt. loss

Question: What about the “effectiveness as corrosion inhibitor” value ([2]; "open" pH 2.6 solution) of the same compound?
Answer: good corrosion inhibitors

Question: What about the “% wt. loss in pH 2.6 solution” value ([2]; "open" pH 2.6 sulfate solution) of the same compound?
Answer: 7.2%

Question: What about the “weightloss in Ar-purged pH 2.6 solution” value [11] of the same compound?
Answer: extensive weightless

Question: And the “adsorption on iron surface” value ([4]; borate buffer pH 8.4, aerated)?
Answer: forms a monolayer initially and then multilayers; also recorded: Adsorption

Question: And the “adsorption on iron surface” value [4, 12]?
Answer: still can adsorb on the iron surface; also recorded: adsorption

Question: And the “inhibition of iron corrosion” value [5, 13]?
Answer: stops corrosion; also recorded: inhibition

Question: What about the “inhibition of iron corrosion” value [5, 14] of the same compound?
Answer: none of them can stop the iron corrosion; also recorded: no effect

Question: And the “weight loss / corrosion rate” value [8]?
Answer: lowest corrosion rate

Question: What about the “hematite in samples exposed” value [9] of the same compound?
Answer: no hematite was detected

Question: What about the “exposure time at which hematite formation was observed (FTIR)” value [9] of the same compound?
Answer: 12 h

Question: What about the “% wt. loss in pH 5.9 solution” value [3] of the same compound?
Answer: 0%

Question: Which percent wt. loss [1] does the source give for `COCCCN` [3-methoxypropylamine] here?
Answer: 0%

Question: And the “time when wt. loss commenced” value [1]?
Answer: no wt. loss

Question: And the “effectiveness as corrosion inhibitor” value ([2]; "open" pH 2.6 solution)?
Answer: not effective inhibitors

Question: What about the “% wt. loss in pH 2.6 solution” value ([2]; "open" pH 2.6 solution, over 60 minutes, probe failed after 60 minutes) of the same compound?
Answer: 11.19% and 11.19 (probe failed %

Question: What about the “% wt. loss in pH 5.9 solution” value [3] of the same compound?
Answer: 0%

Question: Which results are given for `NCCCCCO` [5-amino-1-pentanol]?
Answer: percent wt. loss [1]: 4.106%; time when wt. loss commenced [1]: 90 min; % wt. loss in pH 5.9 solution [3]: 4.106%; pKa ([10]; Table II, 23° C.): 10.46 (23° C.)
